From US7776527B2, “Methods and compositions for reducing microbial induced apoptosis” (The Regents of the University of California, priority 2003, dated 2010)
Where two headings read alike, the source gives them in different places. Peptide text beside a SMILES is read from it. * marks the point of attachment. Cbz = O=C(OCc1ccccc1)*; CH2F = FC*

Experiments:
PKR−/− BMDMs = assay type: cell-based, mouse
Method: A. Bone marrow derived macrophages (BMDMs) from PKR+/+ and PKR−/− mice were left untreated or treated with LPS plus SB202190 or LT (2.5 μg/ml PA+500 ng/ml LF), 15-deoxy-12,14-prostaglandin J2 (5 μM), or doxorubicin (10 μg/ml), as indicated. After 16 hrs, the cells were stained with Hoechst 33258 (blue) or annexin V-Alexa568 (red). […] (FIG. 9a) B. Bone marrow derived macrophages (BMDMs) from PKR+/+ or PKR−/− mice were incubated with LPS for various time periods (in days) and analyzed by TUNEL staining to determine the extent of apoptosis. […] (FIG. 9b)

[1] = test system: bone marrow derived macrophages (BMDMs); assay type: cell-based, mouse; settings: for apoptotic response of BMDMs: C57BL/6J BMDMs
[2] = test system: J774A.1 macrophage-like cells; experiment: Nucleosomal DNA ladder in J774A.1 cells incubated with LPS plus SB202190 and pan-caspase inhibitor; assay type: cell-based; settings: inhibitor 10, 100, 200 μM, 18 hrs
Method: A. J774A.1 macrophage-like cells were incubated with LPS plus SB202190 (10 μM) whereas NIH3T3 fibroblasts were incubated with mouse TNF-α (10 ng/ml) plus cycloheximide (25 μg/ml). At the indicated time points cell lysates were prepared and analyzed by immunoblotting with antibodies specific to caspase-8. (FIG. 8a) B. J774A.1 macrophage-like cells were incubated with LPS plus SB202190 (10 μm), whereas NIH3T3 fibroblasts were incubated with mouse TNF-α (10 ng/ml) plus cycloheximide (25 μg/ml). At the indicated time points cell lysates were prepared and analyzed by immunoblotting with antibodies specific to caspase-3. (FIG. 8b) C. J774A.1 macrophage-like cells were incubated with or without LPS in the absence or presence of SB202190. When indicated, increasing concentrations (10, 100, and 200 μM) of a pan-caspase inhibitor (ZVAD-FMK) were added. After 18 hrs, genomic DNA was isolated and analyzed by agarose gel electrophoresis and EtBr staining for appearance of nucleosomal ladders indicative of apoptosis. (FIG. 8c)

[3] = test system: IKKβ-deficient macrophages; experiment: TUNEL apoptosis of IKKβ-deficient macrophages treated with TLR agonists or TNF-α; assay type: cell-based, mouse; settings: without p38 inhibition, 12 hrs
Method: Bone marrow derived macrophages from Ikkβ F/F (IKKβ+/+) or MX1Cre-Ikkβ F/F (IKKβ−/−) mice were untreated or treated with LPS (100 ng/ml), LTA from B. subtilis (10 μg/ml), poly(IC) (10 μg/ml), SBLP (Pam3CSK4, 1 μg/ml), CpG-containing DNA (1 μM), and mouse TNF-α (10 ng/ml). After 12 hrs, apoptotic cell death was quantitated by TUNEL staining. Inset, macrophage lysates were analyzed by immunoblotting with antibodies specific to IKKβ and p38. (FIG. 2e)

PKR = molecular target: T1, PKR (Mus musculus, UniProt Q03963); experiment: PKR activation by autophosphorylation and eIF2α phosphorylation in macrophages; assay type: cell-based; settings: for PKR activation (autophosphorylation, eIF2α phosphorylation): wt macrophages
T1 construct: endogenous in cells; host or cells: wild-type mouse bone marrow derived macrophages (BMDMs)
T1 sequence (Q03963 1-515): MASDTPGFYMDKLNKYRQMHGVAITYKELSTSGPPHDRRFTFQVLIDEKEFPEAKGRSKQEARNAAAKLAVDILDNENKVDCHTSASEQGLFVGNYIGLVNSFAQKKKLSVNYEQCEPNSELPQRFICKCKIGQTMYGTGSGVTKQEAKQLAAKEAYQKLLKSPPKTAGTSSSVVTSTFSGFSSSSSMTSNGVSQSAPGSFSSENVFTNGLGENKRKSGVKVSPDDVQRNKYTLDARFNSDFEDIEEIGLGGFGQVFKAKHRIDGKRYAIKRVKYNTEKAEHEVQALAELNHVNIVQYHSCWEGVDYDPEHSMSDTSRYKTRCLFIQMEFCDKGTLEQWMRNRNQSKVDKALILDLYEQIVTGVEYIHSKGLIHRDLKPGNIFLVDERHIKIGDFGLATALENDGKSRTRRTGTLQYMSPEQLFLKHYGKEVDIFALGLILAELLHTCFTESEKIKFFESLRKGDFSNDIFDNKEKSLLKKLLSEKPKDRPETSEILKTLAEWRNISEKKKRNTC
Method: Whole cell extracts were prepared and PKR activity was measured by autophosphorylation (Gusella et al. J Immunol 154, 345-54, 1995) after immunoprecipitation with anti-PKR antibody (Santa Cruz).
Phosphorylation of eIF2α was detected by immunoblotting with antibody against phosphorylated eIF2α (Biosource, Camarillo, Calif.). The same blot was stripped and probed with antibody against total eIF2αIKK and MAPK activation were measured as described (Park et al. Science 297, 2048-51, 2002). Phosphorylation of STAT1 (Medzhitov et al. Nature 388, 394-7 (1997) was monitored by immunoblotting with anti-phospho-STAT1 antibody (Cell Signaling, Beverly, Mass.).
Bone marrow derived macrophages (BMDMs) (wt) were stimulated with LPS (100 ng/ml) or poly(IC) (10 μg/ml) or left unstimulated. At the indicated time points cells were lysed and PKR activation was monitored by autophosphorylation. Gel loading was controlled by immunoblotting for PKR. The same lysates were monitored for eIF-2α phosphorylation by immunoblotting with antibodies specific for phosphorylated eIF-2a (P-eIF-2α) and total eIF-2α (FIG. 3a)

[4] = test system: bone marrow derived macrophages (BMDMs); assay type: cell-based, mouse; settings: BMDMs preincubated with poly(IC) 6 hrs before infection
S. typhimurium = experiment: Systemic S. typhimurium infection of mice pretreated with poly(IC); assay type: in vivo
Method: Mice (7-10 weeks old) were injected i.p. with either PBS or 200-300 μg poly(IC) in PBS. After 20 hrs, mice were injected i.p. with 10^6 S. typhiumurium 14028 in PBS. Mice that were still alive were sacrificed after 24 hrs and their spleens removed. For certain experiments, tissue was homogenized in PBS+0.1% Triton X-100. To determine bacterial counts, tissue homogenates were diluted in PBS and plated on LB agar and colonies were counted after overnight incubation at 37° C.
B. Mice (wt and PKR−/−) were Injected i.p. with PBS or 200-300 μg Poly(IC) in PBS
After 20 hrs the mice were injected i.p. with 10^6 S. typhimurium (14028) bacteria suspended in PBS. After 24 hrs, survival was monitored and mice that were still alive were sacrificed and the numbers of live bacteria within their spleens determined. * represents p=0.007. (FIG. 7b)
C. Mice were Treated as Above and Parts of their Spleens Analyzed for the Presence Of Apoptotic Cells by TUNEL Staining
Photograph was taken from the splenic red pulp where macrophages reside. (FIG. 7c)

A1/Bfl1 = experiment: Immunoblotting of A1/Bfl1 and cIAP-1 after poly(IC) transfection and LPS; assay type: cell-based, mouse; settings: wt BMDMs, poly(IC) transfection followed by LPS
Method: PKR+/+ and PKR−/− BMDMs were transfected with or without poly(IC) using Lipofectamine (Diebold et al. Nature 424, 324-328, 2003). After 6 hrs, LPS was added and the levels of A1/Bfl1 and cIAP-1 were examined by immunoblotting. (FIG. 5b)

[5] = with p38 inhibition (SB202190 10 μM), 18 hrs

CCCCCC=CC=C1C(=O)C=C[C@@H]1CC=CCCCC(=O)O [15-deoxy-12,14-prostaglandin J2]
apoptosis of PKR−/− BMDMs (PKR−/− BMDMs): still underwent apoptosis

Oc1ccc(-c2nc(-c3ccncc3)c(-c3ccc(F)cc3)[nH]2)cc1 [SB202190]
macrophage apoptosis induced by heat-inactivated B. anthracis ([1]; in the presence of SB202190 (10 μM), 18 hrs, TUNEL): extensive macrophage apoptosis

C[C@@H]1C[C@@H]([C@H](O)CC2CC(=O)NC(=O)C2)C(=O)[C@@H](C)C1 [cycloheximide]
apoptosis on mere incubation ([1]; wt or PKR−/− BMDMs, cycloheximide 10 μg/ml): triggered apoptosis

COc1cccc2c1C(=O)c1c(O)c3c(c(O)c1C2=O)C[C@@](O)(C(=O)CO)C[C@@H]3O[C@H]1C[C@H](N)[C@H](O)[C@H](C)O1 [doxorubicin]
apoptosis of PKR−/− BMDMs (PKR−/− BMDMs; PKR−/− BMDMs, 16 hrs, annexin V): still underwent apoptosis

COC(=O)C[C@H](NC(=O)[C@H](C)NC(=O)[C@@H](NC(=O)OCc1ccccc1)C(C)C)C(=O)CF [pan-caspase inhibitor, ZVAD-FMK] (Cbz-Val-Ala-Asp(OMe)-CH2F)
effect on LPS-induced macrophage apoptosis [2]: apoptosis was inhibited

Pam3CSK4 [SBLP]
apoptotic response of BMDMs [1, 5]: Little apoptosis

TNF-α
apoptosis of IKKβ-deficient macrophages [3]: underwent apoptosis

lipopolysaccharide [LPS]
apoptotic response of BMDMs [1, 5]: strong apoptotic response
apoptosis on prolonged incubation ([1]; wt BMDMs, without p38 inhibition, prolonged incubation (days)): resulted in apoptosis
apoptosis of IKKβ-deficient macrophages [3]: underwent apoptosis
PKR activation (autophosphorylation, eIF2α phosphorylation) (PKR): rapidly activated

lipoteichoiec acid [LTA]
apoptosis of IKKβ-deficient macrophages [3]: underwent apoptosis

poly(IC)
apoptotic response of BMDMs ([1]; without p38 inhibition, 18 hrs): weak apoptotic response
apoptosis after transfection versus simple addition to culture medium ([1]; poly(IC) transfection, LPS added 6 hrs later, 18 hrs): higher level of apoptosis
sensitization of BMDMs to LPS-induced apoptosis ([1]; with LPS, without SB202190): renders BMDMs susceptible to LPS-induced apoptosis
apoptosis of IKKβ-deficient macrophages [3]: more susceptible
PKR activity after transfection versus simple addition to culture medium (PKR; poly(IC) introduced by transfection (lipofectamine)): higher levels of PKR activity
PKR activation (autophosphorylation, eIF2α phosphorylation) (PKR): rapidly activated
effect on apoptosis in response to live S. typhimurium or Y. pseudotuberculosis [4]: potentiated apoptosis
enhancement of bacterial load, apoptosis or mortality (S. typhimurium; PKR−/− mice, poly(IC) pretreatment): little enhancement
number of apoptotic cells in the red pulp of the spleens (S. typhimurium; S. typhimurium infected wt mice, poly(IC) pretreatment): increased the number of apoptotic cells
increase in number of live bacteria recovered from the spleen (S. typhimurium; wt mice, 200-300 μg poly(IC) i.p. before S. typhimurium, 24 hrs): 3.5 fold
mortality caused by S. typhimurium infection (S. typhimurium; wt mice, poly(IC) pretreatment): increased the mortality
accumulation of A1/Bfl1 (A1/Bfl1): inhibited the accumulation
